Reference: patent US12605453B2, “CP2C-targeting peptide-based anticancer agent” (Industry-University Cooperation Foundation Hanyang …, priority 2019, dated 2026)
Where a SMILES comes first, the peptide text is derived from it.

Columns and labels:
[1] = test system: cell cycle (G2/M, subG1); experiment: FACS cell cycle analysis after cell cycle synchronization; format: cell-based
From the text: The growth inhibitory and cell death-inducing efficacy of ACP52C was confirmed by FACS analysis by treating cells with ACPS2C after synchronizing the cell cycle to the G1/S phase through a double thymidine block method.

[2] = Half-life in solution containing 10% serum by HPLC; format: in vitro ADME; settings: HPLC after removing serum proteins
Method: (§2) The ACP52C half-life in the solution containing serum was analyzed by HPLC (model: UHPLC DIONEX Ultimate 3000; Flow=1.000 ml/min) after incubation of ACP52C in the solution containing 10% serum for various times and then removing serum proteins with Centricon (Mw10,000) before HPLC analysis. […] Meanwhile, after injecting ACP52C into the mouse via tail vein, blood samples were extracted over time and the degree of ACP52C degradation in the blood samples was analyzed by HPLC.

[3] = Preliminary repeated toxicity test of ACP52C; format: in vivo, mouse; settings: 100 mg/kg and 1000 mg/kg repeatedly administered twice
Method: A repeated toxicity test for the in vivo administration of ACP52CGK was conducted using female and male mice. […] As a full-scale experiment, after intravenous infusion of ACP52CGK for 28 days at 3-day intervals into the solvent group and high-dose group (100 mg/Kg) of 6 males and females each, the weight change, drinking water intake, and main histological analysis of organs, organ weight, hematological tests and blood biochemical tests were analyzed.

[4] = ELISA for antibody formation in sera of injected rabbits (immunogenicity); settings: rabbit, in vivo
From the text: To verify this, immunogenicity of ACP52CG and ACP52CK was directly tested in the process of deriving the final new drug candidate. Since the final candidate material might be a C-16 palmitoyl acid-conjugated ACP52C peptide, which is not different with ACP52CG and ACP52CK in terms of chemical composition, it was decided to analyze whether antibodies were formed on ACP52CG and ACP52CK. […] Therefore, it was concluded that the final candidate material (ACP52CGK) would also not show immunogenicity in the human body (FIG. 21).

[5] = test system: lung cancer cell lines (A549, PC9, KCL22); experiment: Immunoblot of CP2c pathway proteins in lung cancer cell lines treated with ACP52C; format: cell-based
From the text: (§1) Since MDM2p60 is known to be a protein in which the C-terminal region of MDM2p90 comprising sites (S386, S395, and S407) phosphorylated by ATM is deleted, it was speculated that the MDM2 degradation would not be properly regulated by ACP52C treatment (FIG. 29, FIGS. 30a to 30c).

[6] = Degradation in mouse blood samples after tail vein injection, HPLC; format: in vivo
Method: as §2

[7] = test system: CHK1/2, CDC25c, CDK1, cyclin B, caspases; experiment: Expression of cell cycle and apoptosis marker proteins after ACP52C treatment; format: cell-based
[8] = mouse, in vivo
Method: To analyze the in vivo half-life of ACP52CGK, Cy5-labeled ACP52CGK was injected into the tail vein of the mouse, and then the fluorescence intensity remaining in the mouse body was measured over time by live imaging process.

[9] = test system: various cancer cell lines; experiment: Anticancer effect of ACP52C in various carcinomas (GI50, FIG. 1); format: cell-based
From the text: FIG. 1 illustrates GI50 values dependent upon ACP52C treatment in various cancer cell lines.
The selected peptide binds to CP2c and inhibits the formation of a transcription factor complex including CP2c (CP2c homotetramer and CP2c/CP2b/PIAS1 heterohexamer), thereby indirectly interfering with DNA binding of CP2c.

[10] = test system: A549 cell line in which MDM2 overexpression is chronically induced; experiment: MTT assay in A549 cell line with chronically induced MDM2 overexpression; format: cell-based; settings: doxycycline for 3 weeks, MDM2p90 overexpressed
From the text: as §1

[11] = ACP52C-induced G2/M phase arrest

CC(=O)N[C@@H](CC(N)=O)C(=O)N[C@@H](Cc1ccc(O)cc1)C(=O)N1CCC[C@H]1C(=O)N[C@@H](CCC(N)=O)C(=O)N[C@@H](CCCNC(=N)N)C(=O)N1CCC[C@H]1C(=O)N[C@@H](CS)C(=O)N[C@@H](CCCNC(=N)N)C(=O)NCC(=O)N[C@@H](CC(=O)O)C(=O)N[C@@H](CCCCN)C(=O)NCC(=O)N1CCC[C@H]1C(=O)N[C@@H](CC(=O)O)C(=O)N[C@@H](CS)C(N)=O [ACP52C] (Ac-NYPQRPCRGDKGPDC-NH2)
cell cycle effect (FACS) ([1]; cell line synchronized to G2/M phase with thymidine/nocodazole): the cell cycle was arrested at the subG1 phase and cell death was induced
cell cycle effect (FACS) ([1]; cells synchronized to G1/S phase by double thymidine block): cell cycle arrest at the G2/M phase
degradation in solution containing 10% serum [2]: not degraded at all until 24 hours
liver toxicity or adverse effect on major organs [3]: any liver toxicity or adverse effect on major organs was not observed
survival [3]: all the mice survived
immune response of sera from rabbits injected with ACP52CG and ACP52CK three times (ELISA) [4]: did not induce immune responses
expression of MDM2 (p90 and p60) [5]: no decrease in the expression
expression of YY1 [5]: decreased
expression of p53, p63 and p73 [5]: did not show any change
half-life in mouse blood [6]: about 2 hours
cell death induction mechanism [7]: apoptosis via activation of caspases
expression of CDC25c, CDK1, and cyclin B proteins [7, 11]: decreased expression of CDC25c, CDK1, and cyclin B proteins
expression of CHK1/2 protein [7, 11]: increased expression of CHK1/2 protein
presence in cancer tissues after injection [8]: observed in cancer tissues even 5 days after injection
growth inhibition and cell death efficacy [9]: cancer cell-specific growth inhibition and cell death efficacy
induction of cell death [10]: cell death was induced from the second week
